Experimental findings from patent US9364459B2, “3-(indolyl)- or 3-(azaindolyl)- 4-arylmaleimide derivatives for use in the treatment of colon and gastric adenocarcinoma” (Johannes Gutenberg-Universität Mainz, priority 2009, dated 2016) are described below.

The target of one series is VEGFR-2 (Homo sapiens (Human), UniProt P35968). In words: VEGFR-2 kinase inhibition assay (Millipore IC50Profiler). The format is biochemical. The conditions noted are these: for VEGFR-2 IC50 values, in words: Table 2. The source says: (§1) GSK-3β, VEGFR-2, FLT-3 Kinase Inhibition Assays
(§2) Detailed protocols can be found at: www.millipore.com/drugdiscovery/dd3/assayprotocols.

The target in the next series is GSK-3β (Homo sapiens (Human), UniProt P49841). In words: GSK-3β kinase inhibition assay (Millipore IC50Profiler). In kind it is biochemical.
From the text: as §1, §2

Series [1] relates to HT-29 human colon adenocarcinoma cells. In words: MTT viability assay in HT-29 cells. The conditions noted are these: HT-29, 72 h, read-out: Viability of HT-29 cells as determined by MTT assay.
Experimental: Evaluation of Effect on Viability (MTT Assay)
The antiproliferative activity of test compounds was determined by the 3-(4,5-dimethylthiazol-2-yl)-2,5-diphenyltetrazolium bromide (MTT) assay as described previously (Mosmann, T. et al. (1983) J. Immunol. Methods 65, 55-63). Cells in the exponential growth phase were transferred to 96-well flat-bottom plates. 10,000 viable cells contained in 200 μl cell suspension were plated into each well and incubated over night. Cells were then exposed to various concentrations of test compounds (100 μl/well) for 3 days at 37° C. with 5% CO2. Subsequently, 10 μl/well MTT stock solution (5 mg/ml; Biomol, Germany) was added and the cells were incubated at 37° C. with 5% CO2 for 4 hours. 100 μl solubilization solution (10% SDS in 0.01 M HCl) was added and the cells were incubated at 37° C. with 5% CO2 over night. Plates were read on an ELISA-Reader ELX 800 (BIO-TEK Software KC 4) at 562 nm absorbance. Each experiment was done in triplicate.
HCT-116, HT-29 and SW480 cells were cultured in RPMI1640 supplemented with 10% FCS. […] All cells were maintained at 37° C. and 5% CO2.
A further series concerns the target FLT-3 (Homo sapiens (Human), UniProt P36888). In words: FLT-3 kinase inhibition assay (Millipore IC50Profiler). The format is biochemical. The method, then: as §1
The effect of test compounds on the activity of the protein kinases GSK-3β, VEGFR-2 and FLT-3 was evaluated based on half maximal inhibitory concentration (IC50) values determined by Millipore UK Ltd; Gemini Crescent; Dundee Technology Park; Dundee DD2 1SW; UK (IC50Profiler). Detailed protocols can be found at: www.millipore.com/drugdiscovery/dd3/assayprotocols.

Another series deals with HT-29. In words: Nicoletti apoptosis assay in HT-29 cells. The format is cell-based, human. As to conditions: for Sub-G1 Fraction: Table 8, HT-29. As to the method:
(§3) Nicoletti Apoptosis Assay by Cell Cycle Analysis
(§4) Cancer cells were transferred to 12-well flat-bottomed plates. […] Subsequently, cells were incubated in 1 ml medium containing various concentrations of test compounds at 37° C. with 5% CO2. After incubation the cells were washed with PBS, trypsinized, pelleted and mixed with PI buffer (containing 0.1% sodium citrate, 0.1% triton X-100, […] propidium iodide (PI)) and incubated for 1 hour at 4° C. Cell cycle sub-G1 fraction analysis was performed as described previously (Nicoletti, I. et al. (1991) J. Immunol. Methods 139, 271-279) using a flow cytometer (BD FACS Calibur™, BD Biosciences, Heidelberg, Germany). Each experiment was done in triplicate.

The test system of series [2] is chick embryo microvessel formation. In words: Quantitative chick embryo in vivo assay of antiangiogenic activity. The conditions noted are these: Gallus gallus; 26 nM drug concentration/pellet; 24 hours incubation; read-out: Inhibition of microvessel area. The method, then: Evaluation of Antiangiogenic Activity in a Quantitative Chick Embryo In Vivo Assay
The inhibition of angiogenesis (new blood vessel formation) was measured as described in WO2006/061212.

In the next series the test system is HUVEC. In words: Nicoletti apoptosis assay (sub-G1 fraction) in HUVEC. The format is cell-based, human. The conditions noted are these: 4 days, untreated 15.4 ± 1.5%. As to the method:
as §3, §4
The same analysis was performed with HUVEC cells. 1.5×10^4 cells were plated into each well and treated with test compounds for 4 days.
Human Umbilical Vein Endothelial Cells (HUVEC) known for mitogenic specifity for VEGF were obtained from the Department of Pathology, University Hospital of Mainz, Germany. The cells were cultured in M199 supplemented with 20% FCS, 1% Pen/Strep, 0.34% GlutaMAX-I, 25 μg/ml Endothelial Cell Growth Supplement (BD Biosciences), 25 μg/ml Heparin sodium (179 USP units/mg; Sigma, Germany) and were maintained at 37° C. and 5% CO2.

[3] abbreviates: 7.9 μM test compound alone, drug-free control 3.4 ± 0.9%.
Where [4] appears, read: 7.9 μM test compound plus 1.18 μM irinotecan.

A word on the IC50: it is the concentration that inhibits the measured activity by half. Read a high IC50 as a need for much substance. A word on the viability: it is a read-out of living cells in per cent, often relative to untreated cells. Broadly, the inhibition is the change of the read-out against control, counted positive when it falls. Usually melting point stands for the temperature of the solid-liquid transition.

Sequence of FLT-3 (P36888 27-993): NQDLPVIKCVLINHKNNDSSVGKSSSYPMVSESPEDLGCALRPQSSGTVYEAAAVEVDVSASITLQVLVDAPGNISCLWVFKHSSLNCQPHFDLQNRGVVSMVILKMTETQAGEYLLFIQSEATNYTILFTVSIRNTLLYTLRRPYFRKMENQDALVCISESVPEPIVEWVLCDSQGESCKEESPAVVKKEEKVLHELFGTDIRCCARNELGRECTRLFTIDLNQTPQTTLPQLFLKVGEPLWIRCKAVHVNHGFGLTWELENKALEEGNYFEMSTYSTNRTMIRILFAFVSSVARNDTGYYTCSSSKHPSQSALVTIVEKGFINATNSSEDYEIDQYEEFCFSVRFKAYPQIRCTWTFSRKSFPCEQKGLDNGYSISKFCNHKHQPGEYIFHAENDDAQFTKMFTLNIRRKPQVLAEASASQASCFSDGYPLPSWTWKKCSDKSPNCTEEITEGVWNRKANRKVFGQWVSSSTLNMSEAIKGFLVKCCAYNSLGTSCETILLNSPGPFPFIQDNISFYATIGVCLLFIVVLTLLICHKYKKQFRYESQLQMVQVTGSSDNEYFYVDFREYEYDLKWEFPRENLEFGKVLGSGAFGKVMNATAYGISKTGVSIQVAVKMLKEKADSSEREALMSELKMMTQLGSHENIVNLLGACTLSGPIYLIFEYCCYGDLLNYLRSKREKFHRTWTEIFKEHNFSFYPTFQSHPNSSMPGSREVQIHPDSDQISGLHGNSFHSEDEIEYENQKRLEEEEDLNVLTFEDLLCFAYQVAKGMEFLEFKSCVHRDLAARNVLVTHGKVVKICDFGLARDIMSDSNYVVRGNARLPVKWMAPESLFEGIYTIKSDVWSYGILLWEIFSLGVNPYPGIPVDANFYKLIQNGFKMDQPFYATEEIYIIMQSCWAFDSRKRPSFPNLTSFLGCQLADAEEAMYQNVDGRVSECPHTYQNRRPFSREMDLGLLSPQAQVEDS
Sequence of GSK-3β (P49841 whole entry): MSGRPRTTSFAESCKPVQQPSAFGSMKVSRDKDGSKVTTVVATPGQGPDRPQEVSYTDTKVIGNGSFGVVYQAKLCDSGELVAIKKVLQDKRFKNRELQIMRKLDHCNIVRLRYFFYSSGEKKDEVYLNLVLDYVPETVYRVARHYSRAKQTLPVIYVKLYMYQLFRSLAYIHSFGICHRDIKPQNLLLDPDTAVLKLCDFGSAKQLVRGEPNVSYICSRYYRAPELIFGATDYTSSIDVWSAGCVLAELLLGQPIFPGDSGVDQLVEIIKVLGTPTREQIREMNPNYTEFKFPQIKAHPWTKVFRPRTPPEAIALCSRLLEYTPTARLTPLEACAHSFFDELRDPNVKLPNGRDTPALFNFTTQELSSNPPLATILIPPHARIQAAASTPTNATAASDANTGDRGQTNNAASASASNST
Sequence of VEGFR-2 (P35968 20-1356): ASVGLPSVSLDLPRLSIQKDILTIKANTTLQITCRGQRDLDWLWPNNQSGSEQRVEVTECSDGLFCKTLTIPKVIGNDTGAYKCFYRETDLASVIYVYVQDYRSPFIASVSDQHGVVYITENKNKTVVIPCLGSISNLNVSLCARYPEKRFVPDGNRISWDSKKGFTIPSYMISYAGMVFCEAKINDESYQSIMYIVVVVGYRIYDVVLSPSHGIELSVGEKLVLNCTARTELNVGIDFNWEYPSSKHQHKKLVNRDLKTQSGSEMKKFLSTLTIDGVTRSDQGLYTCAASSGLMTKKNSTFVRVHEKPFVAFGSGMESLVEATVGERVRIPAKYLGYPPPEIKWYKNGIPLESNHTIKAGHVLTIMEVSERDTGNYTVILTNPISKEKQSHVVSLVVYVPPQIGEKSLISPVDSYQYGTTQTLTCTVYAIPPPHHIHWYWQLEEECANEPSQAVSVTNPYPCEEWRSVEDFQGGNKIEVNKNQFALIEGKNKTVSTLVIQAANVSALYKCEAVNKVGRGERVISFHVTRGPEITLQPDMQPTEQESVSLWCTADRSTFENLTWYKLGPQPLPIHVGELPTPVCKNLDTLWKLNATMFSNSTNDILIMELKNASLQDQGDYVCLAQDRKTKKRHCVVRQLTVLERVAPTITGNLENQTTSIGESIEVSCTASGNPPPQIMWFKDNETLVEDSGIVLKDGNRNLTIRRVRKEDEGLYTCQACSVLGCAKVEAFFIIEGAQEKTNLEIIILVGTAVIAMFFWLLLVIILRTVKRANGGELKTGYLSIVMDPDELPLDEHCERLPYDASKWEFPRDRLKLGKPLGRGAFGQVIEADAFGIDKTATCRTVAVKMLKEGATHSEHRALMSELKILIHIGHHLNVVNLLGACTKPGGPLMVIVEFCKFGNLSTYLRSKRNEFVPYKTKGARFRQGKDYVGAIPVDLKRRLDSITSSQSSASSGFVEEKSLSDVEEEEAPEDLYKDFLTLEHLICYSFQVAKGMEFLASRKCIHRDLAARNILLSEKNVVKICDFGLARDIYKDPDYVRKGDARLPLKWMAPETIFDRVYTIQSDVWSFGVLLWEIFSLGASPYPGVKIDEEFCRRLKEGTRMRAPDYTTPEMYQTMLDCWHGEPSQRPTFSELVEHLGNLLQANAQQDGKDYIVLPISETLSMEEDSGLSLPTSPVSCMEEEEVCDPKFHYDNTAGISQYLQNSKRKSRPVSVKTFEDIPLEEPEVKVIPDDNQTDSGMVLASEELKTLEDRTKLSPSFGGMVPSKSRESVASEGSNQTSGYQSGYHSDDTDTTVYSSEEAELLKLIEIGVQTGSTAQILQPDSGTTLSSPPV

`COc1cc(C2=C(c3c[nH]c4ncccc34)C(=O)NC2=O)cc(OC)c1OC` [B, 3-(7-Azaindol-3-yl)-4-(3,4,5-trimethoxyphenyl)-maleinimid]: the IC50 was 37 nM against VEGFR-2, over 10000 nM at GSK-3β and 132 nM against FLT-3. In addition, the “VEGFR-2 IC50 values, in words” value on VEGFR-2 is listed as “low nanomolar range”. Besides, in series [1], the viability at 2.6 µM is 65 ± 2.16%. For the same molecule, the viability at 7.9 µM in series [1] amounted to 45.5 ± 3.71%. The viability at 26 µM in series [1] was 38.5 ± 0.99%. Further, in series [1], the viability at 52 µM is 38.1 ± 5.43%. Further, at FLT-3 (Table 2), the “FLT-3 inhibition, in words” value is “most significantly inhibited”. Moreover, the “Sub-G1 Fraction” value in the series on HT-29 (setting [3]) stood at 2.32 ± 1.16%; in the series with HT-29 (setting [4]) it was 22.36 ± 2.80%; with HUVEC (0.79 μM), 26.7 ± 1.9%; in the series with HUVEC (2.6 μM) it was 49.2 ± 2.2%; in the series with HUVEC (7.9 μM), 69.5 ± 3.4%. For the same molecule, the inhibition at 0.026 µM in series [2] worked out at 61%.
As to `COc1cc(C2=C(c3c[nH]c4cnccc34)C(=O)NC2=O)cc(OC)c1OC` [Compound C, 3-(6-Azaindol-3-yl)-4-(3,4,5-trimethoxyphenyl)-maleinimid], the IC50 against VEGFR-2 is 48 nM; at GSK-3β it was under 10 nM; against FLT-3, 1900 nM. Besides, at VEGFR-2, the “VEGFR-2 IC50 values, in words” value is reported as “low nanomolar range”. In addition, on GSK-3β (Table 2), the “GSK-3β IC50 values, in words” value is recorded as “low nanomolar range”. Besides, in series [1], the viability at 2.6 µM worked out at 30.4 ± 1.52%. The viability at 7.9 µM in series [1] was found to be 25.8 ± 3.52%. Further, in series [1], the viability at 26 µM stood at 12.7 ± 2.6%. In addition, the viability at 52 µM in series [1] stood at 4.22 ± 0.44%. Moreover, the “Sub-G1 Fraction” value in the series on HT-29 (setting [3]) came out at 79.9 ± 4.13%; in the series on HT-29 (setting [4]), 75.69 ± 1.77%; in the series with HUVEC (0.79 μM) it was 48.0 ± 2.3%; with HUVEC (2.6 μM), 66.3 ± 1.0%. For the same molecule, in series [2], the inhibition at 0.026 µM turned out to be 32%.
Molecule `COc1cc(C2=C(c3c[nH]c4cccnc34)C(=O)NC2=O)cc(OC)c1OC` [E, 3-(4-Azaindol-3-yl)-4-(3,4,5-trimethoxyphenyl)-1H-pyrrol-2,5-dione] yielded a melting point of 274 to 275 °C. Also, the IC50 against VEGFR-2 came out at 373 nM. In addition, on GSK-3β, half-maximal inhibition (IC50) required 215 nM. Also, in series [1], the viability at 2.6 µM is 114 ± 5.2%, the viability at 7.9 µM worked out at 98.31 ± 0.9%, the viability at 26 µM is 92.6 ± 2.8% and the viability at 52 µM was found to be 65.8 ± 1.5%. Moreover, on FLT-3, it took 1520 nM to reach half-maximal inhibition (IC50). For the same molecule, the “Sub-G1 Fraction” value in the series on HT-29 (setting [3]) turned out to be 4.22 ± 0.74%. Further, in the series with HT-29 (setting [4]), the “Sub-G1 Fraction” value came to 25.71 ± 1.97%.
Molecule `COc1cc(C2=C(c3cn(CCN4CCCCC4)c4ccccc34)C(=O)NC2=O)cc(OC)c1OC` [L, 3-{1-[2-(piperidin-1-yl)ethyl]-1H-indol-3-yl}-4-(3,4,5-trimethoxyphenyl)-maleinimide] returned a melting point of 179 to 180 °C. The molecule further gave an IC50 on VEGFR-2 of 1210 nM. The molecule further gave an IC50 at GSK-3β of over 1000 nM. The molecule further registered an IC50 against FLT-3 of 1240 nM. Also, in the series with HT-29 (HT-29 cells, combination with irinotecan), the “Activity in combination with irinotecan relative to compound A, in words” value is on record as “even more potent than compound A”. Moreover, the “Sub-G1 Fraction” value in the series with HT-29 (setting [3]) is reported as 4.64 ± 0.75%. Besides, the “Sub-G1 Fraction” value in the series on HT-29 (setting [4]) was 62.32 ± 1.63%.
As for `COc1cc(C2=C(c3cn(CCN4CCOCC4)c4ccccc34)C(=O)NC2=O)cc(OC)c1OC` [M, 3-{1-(2-morpholinoethyl)-1H-indol-3-yl}-4-(3,4,5-trimethoxyphenyl)-maleinimide], the melting point lay in the range of 238 to 239 °C. Further, on VEGFR-2, 9200 nM corresponded to half-maximal inhibition (IC50). Also, the IC50 against GSK-3β is 657 nM. The same molecule came in with an IC50 against FLT-3 of over 10000 nM. The “Sub-G1 Fraction” value in the series on HT-29 (setting [3]) came to 10.01 ± 2.16%. Besides, the “Sub-G1 Fraction” value in the series on HT-29 (setting [4]) was determined as 56.81 ± 3.96%.
